{"source": "paper PMC6329299", "about": "(The pharmacogenomics journal, 2015)", "key": {"[1]": {"assay": "Hydrolysis by human intestine s9 fractions", "assay_type": "in vitro ADME", "settings": "substrate 100 μM, 3 concentrations of HIS9"}, "[2]": {"assay": "Hydrolysis by human kidney s9 fractions", "assay_type": "in vitro ADME", "settings": "substrate 100 μM, 3 concentrations of HKS9"}, "[3]": {"target": "T1, CES1 in individual human liver s9 fractions (Homo sapiens, UniProt P23141)", "T1 sequence (P23141 18-567)": "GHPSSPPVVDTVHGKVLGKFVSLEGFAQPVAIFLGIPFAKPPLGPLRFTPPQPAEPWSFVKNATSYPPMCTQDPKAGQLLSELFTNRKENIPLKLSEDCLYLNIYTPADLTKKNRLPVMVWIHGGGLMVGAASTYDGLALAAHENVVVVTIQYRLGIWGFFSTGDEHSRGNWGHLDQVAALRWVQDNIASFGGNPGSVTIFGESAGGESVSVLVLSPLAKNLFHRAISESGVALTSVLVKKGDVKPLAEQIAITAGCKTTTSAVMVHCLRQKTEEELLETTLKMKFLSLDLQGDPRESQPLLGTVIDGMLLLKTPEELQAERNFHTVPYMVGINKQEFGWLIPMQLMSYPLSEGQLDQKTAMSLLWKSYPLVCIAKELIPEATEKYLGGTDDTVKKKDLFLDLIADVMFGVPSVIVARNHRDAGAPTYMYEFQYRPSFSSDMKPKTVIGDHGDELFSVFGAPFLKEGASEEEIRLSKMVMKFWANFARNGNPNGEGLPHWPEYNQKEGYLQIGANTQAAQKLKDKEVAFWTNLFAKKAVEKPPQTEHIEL", "assay_type": "in vitro ADME", "settings": "143G/G livers; HLS9 0.5 mg/ml, enalapril 500 μM, 37 °C, 10 min"}, "[4]": {"tested_on": "CES1 in individual human liver s9 fractions", "assay_type": "in vitro ADME", "settings": "for CES1 activity in the null-CES1 liver samples (some G143E non-carriers): CES1 expression comparable to pooled HLS9"}, "CES1 variant G19V": {"target": "T2, CES1 variant G19V (Homo sapiens, UniProt P23141, G18V)", "T2 sequence (P23141 18-568 isoform P23141-2 G19V limits assumed)": "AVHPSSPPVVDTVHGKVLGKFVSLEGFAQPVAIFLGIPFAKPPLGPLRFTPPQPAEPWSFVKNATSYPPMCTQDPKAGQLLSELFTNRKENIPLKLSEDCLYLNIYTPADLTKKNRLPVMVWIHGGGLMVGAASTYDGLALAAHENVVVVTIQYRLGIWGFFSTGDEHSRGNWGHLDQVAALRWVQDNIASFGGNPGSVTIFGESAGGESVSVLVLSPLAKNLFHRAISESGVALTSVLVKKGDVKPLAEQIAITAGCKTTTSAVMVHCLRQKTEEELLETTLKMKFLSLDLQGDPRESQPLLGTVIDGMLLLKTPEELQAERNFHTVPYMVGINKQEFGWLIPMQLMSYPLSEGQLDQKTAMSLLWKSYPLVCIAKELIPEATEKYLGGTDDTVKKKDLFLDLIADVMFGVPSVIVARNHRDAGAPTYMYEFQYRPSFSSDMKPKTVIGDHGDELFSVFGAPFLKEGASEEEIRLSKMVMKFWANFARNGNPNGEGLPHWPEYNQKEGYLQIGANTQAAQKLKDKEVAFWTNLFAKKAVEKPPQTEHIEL", "assay": "Enalapril hydrolysis by CES1 variant G19V transfected cell s9", "assay_type": "in vitro ADME", "settings": "enalapril 500 μM"}, "CES1 variant S83L": {"target": "T3, CES1 variant S83L (Homo sapiens, UniProt P23141, S82L)", "T3 sequence (P23141 18-568 isoform P23141-2 S83L limits assumed)": "T2 sequence (P23141 18-568 isoform P23141-2 G19V limits assumed) with V2G, S66L", "assay": "Enalapril hydrolysis by CES1 variant S83L transfected cell s9", "assay_type": "in vitro ADME", "settings": "enalapril 500 μM"}, "CES1 variant A270S": {"target": "T4, CES1 variant A270S (Homo sapiens, UniProt P23141, A269S)", "T4 sequence (P23141 18-568 isoform P23141-2 A270S limits assumed)": "T2 sequence (P23141 18-568 isoform P23141-2 G19V limits assumed) with V2G, A253S", "assay": "Enalapril hydrolysis by CES1 variant A270S transfected cell s9", "assay_type": "in vitro ADME", "settings": "enalapril 500 μM"}, "[5]": {"settings": "human, pH 7.4"}, "Hydrolysis": {"assay": "Hydrolysis", "settings": "for Vmax: HLS9, PBS pH 7.4, 37 °C; for Km: human, pooled human liver s9 fractions (HLS9), pH 7.4; for Hydrolysis to active metabolite by human liver s9 fractions: prodrug 100 μM, 3 concentrations of HLS9"}, "CES1 variant G143E [6]": {"target": "T5, CES1 variant G143E (Homo sapiens, UniProt P23141, G142E)", "T5 sequence (P23141 18-568 isoform P23141-2 G143E limits assumed)": "T2 sequence (P23141 18-568 isoform P23141-2 G19V limits assumed) with V2G, G126E", "assay": "Hydrolysis by s9 fractions of cells stably expressing the CES1 variant G143E", "settings": "prodrug 100 μM, 3 concentrations of cell s9"}, "wild type (WT) CES1": {"target": "T6, wild type (WT) CES1 (Homo sapiens, UniProt P23141)", "T6 sequence (P23141 18-568 isoform P23141-2 limits assumed)": "T2 sequence (P23141 18-568 isoform P23141-2 G19V limits assumed) with V2G", "settings": "prodrug 100 μM, 3 concentrations of cell s9"}, "[7]": {"settings": "ref [24]; cited from earlier work"}, "CES1 variant G143E [8]": {"target": "T5, CES1 variant G143E", "settings": "in vitro function study; ref [13], [15], [22], [23]; cited from earlier work"}, "[9]": {"settings": "Japanese cancer patients receiving irinotecan; ref [21]; cited from earlier work"}, "[10]": {"settings": "after oseltamivir; ref [26]; cited from earlier work"}, "[11]": {"settings": "ref [20]; cited from earlier work"}, "[12]": {"settings": "human liver samples, enalapril 500 μM"}}, "note": "Substitutions are numbered along the chain they refer to. Counter-ions that a name gives are not always drawn."}
{"smiles": "CCOC(=O)[C@H](CCc1ccccc1)N[C@@H](C)C(=O)N1CCC[C@H]1C(=O)O", "note": "[Enalapril, Enalapril maleate]", "values": [{"measurement": "Hydrolysis by human intestine s9 fractions", "setting": "[1]", "value": "No appreciable activation"}, {"measurement": "Hydrolysis by human kidney s9 fractions", "setting": "[2]", "value": "No appreciable activation"}, {"measurement": "enalapril activation rate", "setting": "[3]", "value": "55.4±37.3", "unit": "pmole/min/mg protein"}, {"measurement": "CES1 activity in the null-CES1 liver samples (some G143E non-carriers)", "setting": "[4]", "value": "null CES1 activity"}, {"measurement": "CES1 activity on enalapril activation, 143G/E livers as fraction of 143G/G", "setting": "[4]; human liver samples", "value": "approximately 1/3"}, {"measurement": "CES1 activity on enalapril activation between CES1P1/CES1P1, CES1P1/CES1P1VAR and CES1P1VAR/CES1P1VAR genotypes", "setting": "[4]; [12]", "value": "no significant differences"}, {"measurement": "CES1 activity on enalapril hydrolysis among CES1/CES1, CES1/CES1VAR and CES1VAR/CES1VAR genotypes", "setting": "[4]; [12]", "value": "comparable"}, {"measurement": "CES1 activity on enalapril activation within the nine CES1/CES1P1 diplotypes", "setting": "[4]; one way ANOVA, activity P=0.549", "value": "no significant differences"}, {"measurement": "Catalytic activity of G19V on enalapril activation vs WT CES1", "setting": "CES1 variant G19V", "value": "comparable to the WT CES1"}, {"measurement": "Catalytic activity of S83L on enalapril activation vs WT CES1", "setting": "CES1 variant S83L", "value": "comparable to the WT CES1"}, {"measurement": "Catalytic activity of A270S on enalapril activation vs WT CES1", "setting": "CES1 variant A270S", "value": "comparable to the WT CES1"}, {"measurement": "Clint (Vmax/Km)", "setting": "[5]", "value": 1.1, "unit": "μl/min/mg protein"}, {"measurement": "Vmax", "setting": "Hydrolysis; unit for enalapril", "value": "67.5 ± 1.3", "unit": "pmole/min/mg protein"}, {"measurement": "Km", "setting": "Hydrolysis", "value": "60.1 ± 4.2", "unit": "µM"}, {"measurement": "Hydrolysis to active metabolite by human liver s9 fractions", "setting": "Hydrolysis", "value": "efficiently hydrolyzed"}]}
{"smiles": "CCOC(=O)[C@H](CCc1ccccc1)N[C@@H](C)C(=O)N1[C@H](C(=O)O)C[C@@H]2CCC[C@@H]21", "note": "[Ramipril, ramipril]", "values": [{"measurement": "Hydrolysis by human intestine s9 fractions", "setting": "[1]", "value": "No appreciable activation"}, {"measurement": "Hydrolysis by human kidney s9 fractions", "setting": "[2]", "value": "No appreciable activation"}, {"measurement": "Vmax", "setting": "Hydrolysis; unit for ACEIs other than enalapril", "value": "18.1 ± 0.7", "unit": "nmole/min/mg protein"}, {"measurement": "Km", "setting": "Hydrolysis", "value": "690 ± 61.8", "unit": "µM"}, {"measurement": "Hydrolysis to active metabolite by human liver s9 fractions", "setting": "Hydrolysis", "value": "efficiently hydrolyzed"}, {"measurement": "Active metabolite after incubation with CES1 variant G143E", "setting": "CES1 variant G143E [6]", "value": "not detected"}, {"measurement": "Hydrolysis to active metabolite by WT CES1", "setting": "wild type (WT) CES1", "value": "readily hydrolyzed"}]}
{"smiles": "COC(=O)[C@H](c1ccccc1Cl)N1CC[C@@H](S)/C(=C\\C(=O)O)C1", "note": "[clopidogrel active metabolite]", "values": [{"measurement": "concentrations higher in patients carrying heterozygous 143E relative to 143GG", "setting": "[7]", "value": "approximately 60%"}]}
{"smiles": "COC(=O)[C@H](c1ccccc1Cl)N1CCc2sccc2C1", "note": "[clopidogrel]", "values": [{"measurement": "Function of the G143E variant for metabolism of the substrate", "setting": "CES1 variant G143E [8]", "value": "loss-of-function"}]}
{"smiles": "CCc1c2c(nc3ccc(OC(=O)N4CCC(N5CCCCC5)CC4)cc13)-c1cc3c(c(=O)n1C2)COC(=O)[C@]3(O)CC", "note": "[irinotecan]", "values": [{"measurement": "median AUC ratios of metabolites SN-38 and SN-38G to parent compound, higher in CES1P1VAR heterozygous and homozygous patients vs CES1P1/CES1P1", "setting": "[9]", "value": 24, "unit": "%"}]}
{"smiles": "COC(=O)C(c1ccccc1)C1CCCCN1", "note": "(stereo not drawn) [methylphenidate]", "values": [{"measurement": "Function of the G143E variant for metabolism of the substrate", "setting": "CES1 variant G143E [8]", "value": "loss-of-function"}]}
{"smiles": "CCC(CC)O[C@@H]1C=C(C(=O)O)C[C@H](N)[C@H]1NC(C)=O", "note": "[oseltamivir carboxylate]", "values": [{"measurement": "mean Cmax lower in 143E heterozygotes than in non-carriers", "setting": "[10]", "value": 17.5, "unit": "%"}]}
{"smiles": "CCOC(=O)C1=C[C@@H](OC(CC)CC)[C@H](NC(C)=O)[C@@H](N)C1", "note": "[oseltamivir]", "values": [{"measurement": "Metabolism in healthy subjects with different CES1/CES1VAR genotypes", "setting": "[11]", "value": "not significantly different"}]}
{"smiles": "CCOC(=O)[C@H](CCc1ccccc1)N[C@@H](C)C(=O)N1[C@H](C(=O)O)C[C@H]2CCCC[C@@H]21", "note": "[trandolapril]", "values": [{"measurement": "CES1 activity in the null-CES1 liver samples (some G143E non-carriers)", "setting": "[4]", "value": "inactive"}, {"measurement": "Function of the G143E variant for metabolism of the substrate", "setting": "CES1 variant G143E [8]", "value": "loss-of-function"}]}
